Test system: Human primary keratinocyte BKB10002 cells
Experiment: Senescence induction by surfactant, β-Gal staining
Type: cell-based
Conditions: 2 uM NP40 for 14 days, EpiLife medium+S7 supplement, medium change every second day
Protocol: Human primary keratinocyte BKB10002 cells were treated with the surfactant NP40 in order to induce senescence. Cells were grown in EpiLife medium+S7 supplement without (control) or with 2 uM NP40 for 14 days with a medium change every second day. […] Protein concentrations in the supernatants of the cell cultures were quantified using the Bio-Plex® Multiplex Immunoassays or ELISA kits from BIO-RAD.

NP40
cells showing a positive β-Gal staining: 11%
